Assay [1] concerns the target GDP-bound NRAS wild-type protein (Homo sapiens, UniProt P01111). As to the kind of experiment: Binding to NRAS by surface plasmon resonance (SPR), Single Cycle Kinetics.
Assay [2] has as its target GDP-bound HRAS wild-type protein (Homo sapiens, UniProt P01112). As to the kind of experiment: Binding to HRAS by surface plasmon resonance (SPR), Single Cycle Kinetics.

Structures are written as SMILES. *1 amine or outer side, *2 acyl side, *3 side chain or, on linkers, in order; H or OH if unused. Where a SMILES comes first, the peptide text is derived from it. Bridges are numbered along the chain shown (N, C = ends). [ ]: non-standard residue; d: D form. The star is where a group is joined. hPhe(3,5-F2-4-CF3) = N[C@@H](CCc1cc(F)c(C(F)(F)F)c(F)c1)C(=O)O; hPhe(3-Cl-4-CF3) = N[C@@H](CCc1ccc(C(F)(F)F)c(Cl)c1)C(=O)O; NPrPhe(4-CF3) = CCCN[C@@H](Cc1ccc(C(F)(F)F)cc1)C(=O)O; X16 = O=C([C@@H](N[*:1])C1CC(F)(F)C1)[*:2]; Abu(4,4,4-F3) = N[C@@H](CC(F)(F)F)C(=O)O; NMeGly(cPent) = CN[C@H](C(=O)O)C1CCCC1; NEtLeu = CCN[C@@H](CC(C)C)C(=O)O; NMeD = CN[C@@H](CC(=O)O)C(=O)O; NMeL = CN[C@@H](CC(C)C)C(=O)O; Morpholide = C1CN(*)CCO1; NMeA = CN[C@@H](C)C(=O)O; Ac5c = NC1(C(=O)O)CCCC1; Aze = O=C(O)[C@@H]1CCN1; NEtG = CCNCC(=O)O; Sar = CNCC(=O)O

GDP-bound HRAS wild-type protein, sequence (P01112 whole entry): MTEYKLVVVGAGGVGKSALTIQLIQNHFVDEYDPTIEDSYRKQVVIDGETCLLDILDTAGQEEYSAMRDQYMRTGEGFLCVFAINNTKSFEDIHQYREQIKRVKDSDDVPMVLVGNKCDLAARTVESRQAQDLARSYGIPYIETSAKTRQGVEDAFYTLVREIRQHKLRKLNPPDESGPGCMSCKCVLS
GDP-bound NRAS wild-type protein, sequence (P01111 whole entry): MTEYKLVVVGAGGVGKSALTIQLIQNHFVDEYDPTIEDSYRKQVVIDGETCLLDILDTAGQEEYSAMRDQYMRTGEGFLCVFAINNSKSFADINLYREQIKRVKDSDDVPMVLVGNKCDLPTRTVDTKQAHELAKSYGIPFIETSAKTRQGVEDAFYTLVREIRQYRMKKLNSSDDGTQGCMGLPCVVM

With `CCCN1C(=O)CN(C)C(=O)CN(C)C(=O)[C@H](C2CC(F)(F)C2)NC(=O)[C@H](CC(C)C)N(C)C(=O)C[C@@H](C(=O)N(C)C)N(C)C(=O)[C@H](C2CCCC2)N(C)C(=O)C2(CCCC2)NC(=O)[C@@H]2CCCN2C(=O)[C@H](CCc2cc(F)c(C(F)(F)F)c(F)c2)NC(=O)CN(C)C(=O)[C@@H]1Cc1ccc(C(F)(F)F)cc1` [PP0748] ([NMeL][X16][Sar][Sar][NPrPhe(4-CF3)][Sar][hPhe(3,5-F2-4-CF3)]P[Ac5c][NMeGly(cPent)][NMeD]-NMe2; lactam N-11), in assay [1] (SPR), the “NRAS/KRAS (ratio of KD value with respect to GDP-bound NRAS wild-type protein to KD value with respect to KRAS)” value was “B (a compound having 3 or more and less than 10 is denoted as B)”. The “HRAS/KRAS (ratio of KD value with respect to GDP-bound HRAS wild-type protein to KD value with respect to KRAS)” value in assay [2] (SPR) was “B (a compound having 3 or more and less than 10 is denoted as B)”.
`CCCN1C(=O)CN(C)C(=O)CN(CC)C(=O)[C@H](CC(F)(F)F)NC(=O)[C@H](CC(C)C)N(C)C(=O)C[C@@H](C(=O)N2CCOCC2)N(C)C(=O)[C@H](C2CCCC2)N(C)C(=O)C2(CCCC2)NC(=O)[C@@H]2CCCN2C(=O)[C@H](CCc2ccc(C(F)(F)F)c(Cl)c2)NC(=O)CN(C)C(=O)[C@@H]1Cc1ccc(C(F)(F)F)cc1` [PP0291] ([NMeL][Abu(4,4,4-F3)][NEtG][Sar][NPrPhe(4-CF3)][Sar][hPhe(3-Cl-4-CF3)]P[Ac5c][NMeGly(cPent)][NMeD]-Morpholide; lactam N-11): in assay [1] (SPR), the “NRAS/KRAS (ratio of KD for GDP-bound NRAS wild-type to KD for KRAS)” value is “B (a compound having 3 or more and less than 10 is denoted as B)”. Moreover, in assay [2] (SPR), the “HRAS/KRAS (ratio of KD for GDP-bound HRAS wild-type to KD for KRAS)” value was “B (a compound having 3 or more and less than 10 is denoted as B)”.
`CCCN1C(=O)[C@@H]2CCN2C(=O)[C@H](C)N(C)C(=O)[C@H]([C@@H](C)CC)NC(=O)[C@H](CC(C)C)N(CC)C(=O)C[C@@H](C(=O)N2CCOCC2)N(C)C(=O)[C@H](C2CCCC2)N(C)C(=O)C2(CCCC2)NC(=O)[C@@H]2CCCN2C(=O)[C@H](CCc2ccc(C(F)(F)F)c(Cl)c2)NC(=O)CN(C)C(=O)[C@@H]1Cc1ccc(C(F)(F)F)cc1` [PP0151] ([NEtLeu]I[NMeA][Aze][NPrPhe(4-CF3)][Sar][hPhe(3-Cl-4-CF3)]P[Ac5c][NMeGly(cPent)][NMeD]-Morpholide; lactam N-11): the “NRAS/KRAS (ratio of KD for GDP-bound NRAS wild-type to KD for KRAS)” value in assay [1] (SPR) is “C (A compound having a KD ratio of 0.1 or more and less than 3 is denoted as C)”. Also, the “HRAS/KRAS (ratio of KD for GDP-bound HRAS wild-type to KD for KRAS)” value in assay [2] (SPR) was “C (A compound having a KD ratio of 0.1 or more and less than 3 is denoted as C)”.
Regarding `CCCOC[C@H]1C(=O)N[C@@H]([C@@H](C)OCC)C(=O)N(C)CC(=O)N(C)[C@H]2C/C=C\CCN(C2=O)[C@@H](Cc2ccc(C)cc2)C(=O)N(C)CC(=O)N[C@@H](CCc2cc(F)c(C(F)(F)F)c(F)c2)C(=O)N2C[C@@H](C)C[C@H]2C(=O)NC2(CC(C)(C)C2)C(=O)N(C)[C@@H](C2CCCC2)C(=O)N(C)[C@H](C(=O)N(C)CC)CC(=O)N1C` [PP2424], the “NRAS/KRAS (ratio of KD value with respect to NRAS to KD value with respect to KRAS)” value in assay [1] (SPR, GDP-bound NRAS wild-type vs GDP-bound KRAS wild-type) is “A (a compound having 10 or more and less than 20 is denoted as A)”. The “HRAS/KRAS (ratio of KD value with respect to HRAS to KD value with respect to KRAS)” value in assay [2] (SPR, GDP-bound HRAS wild-type vs GDP-bound KRAS wild-type) was “A (a compound having 10 or more and less than 20 is denoted as A)”.
Turning to `CCC[C@H]1C(=O)N[C@@H]([C@@H](C)CC)C(=O)N(C2CC2)CC(=O)N(C)[C@H]2C/C=C\CCN(C2=O)[C@@H](Cc2ccc(C(F)(F)F)cc2)C(=O)N(C)CC(=O)N[C@@H](CCc2ccc(Cl)c(Cl)c2)C(=O)N2C[C@H](OCC)C[C@H]2C(=O)NC2(CC(C)(C)C2)C(=O)N(C)[C@@H](CC2CCC2)C(=O)N(C)[C@H](C(=O)N(C)C)CC(=O)N1C` [PP2819], in assay [1] (class symbols), the “NRAS/KRAS (ratio of KD value with respect to GDP-bound NRAS wild-type protein to KD value with respect to KRAS)” value was “A (a compound having 10 or more and less than 20 is denoted as A)”. Further, the “HRAS/KRAS (ratio of KD value with respect to GDP-bound HRAS wild-type protein to KD value with respect to KRAS)” value in assay [2] (class symbols) was “A (a compound having 10 or more and less than 20 is denoted as A)”.

Source of the values: patent publication US20250230193A1, “CYCLIC COMPOUND HAVING SELECTIVE KRAS INHIBITORY EFFECT ON HRAS AND NRAS” (CHUGAI SEIYAKU KABUSHIKI KAISHA, priority 2022, published 2025).
